Measurements: patent US9650395B2, “Antibacterial compounds and methods for use” (PTC Therapeutics, Inc., priority 2011, dated 2017)
In brackets after ≈: the same amount, converted by molar mass. Read-outs that look alike come from different tables or passages of the source.

Key:
[1] = system: super sensitive Gram-negative Escherichia coli (E. coli) BAS849; experiment: Antibacterial activity, microbroth dilution MIC, E. coli BAS849; assay type: cell-based; details: Escherichia coli, read-out: MIC, BAS849
[2] = system: control Gram-negative E. coli 25922 strain; experiment: Antibacterial activity, microbroth dilution MIC, E. coli 25922; assay type: cell-based, Escherichia coli; details: Escherichia coli; E. coli 25922, microbroth dilution; read-out: MIC, 25922
[3] = system: Gram-positive Staphylococcus aureus (S. aureus) 29213; experiment: Antibacterial activity, microbroth dilution MIC, S. aureus 29213; assay type: cell-based; details: Staphylococcus aureus; S. aureus 29213, microbroth dilution; read-out: MIC, 29213
[4] = system: quinolone resistant E. coli LZ3111; experiment: Antibacterial activity, MIC, quinolone resistant E. coli LZ3111; assay type: cell-based, Escherichia coli; details: Escherichia coli, read-out: MIC, LZ3111
Text: The antibacterial activity from a microbroth dilution method may be presented as the minimum inhibitory concentration (MIC in […]). The MIC value is the lowest concentration of a drug which prevents macroscopically visible bacterial growth under test conditions.
Mutations in these regions are known to confer a high level resistance to the quinolone class of antibiotics.

[5] = E. coli BAS849, microbroth dilution

Structure (SMILES)	MIC [1] [µg/mL]	MIC [2] [µg/mL]	MIC [3] [µg/mL]	MIC [4] [µg/mL]	MIC [1, 5] [µg/mL]
CCc1cc(C(=O)O)c(=O)[nH]c1-c1ccc(N2CCC(C3(N)CCC3)C2)cc1.O=C(O)C(F)(F)F (centres unmarked) [Cpd 218, 6-{4-[3-(1-aminocyclobutyl)pyrrolidin-1-yl]phenyl}-5-ethyl-2-oxo-1,2-dihydropyridine-3-carboxylic acid trifluoroacetate]	1 to 3.5	3.5 to 12.5	12.5 to 150	12.5 to 150	
CCc1cc(C(=O)O)c(=O)[nH]c1-c1ccc(N2C[C@@H]3CCC[C@]3(C(=O)O)C2)cc1.O=C(O)C(F)(F)F [Cpd 220, (3aR,6aR)-2-[4-(5-carboxy-3-ethyl-6-oxo-1,6-dihydropyridin-2-yl)phenyl]hexahydrocyclopenta[c]pyrrole-3a(1H)-carboxylic acid trifluoroacetate]	3.5 to 12.5	12.5 to 150	12.5 to 150	12.5 to 150	
CCc1cc(C(=O)O)c(=O)[nH]c1-c1ccc(N2CCC(N(C)C)C2)cc1F (centres unmarked) [Cpd 221, 6-{4-[3-(dimethylamino)pyrrolidin-1-yl]-2-fluorophenyl}-5-ethyl-2-oxo-1,2-dihydropyridine-3-carboxylic acid]		3.5 to 12.5 (≈ 9.37 to 33.5 µM)	12.5 to 150 (≈ 33.5 to 402 µM)	12.5 to 150 (≈ 33.5 to 402 µM)	1 to 3.5 (≈ 2.68 to 9.37 µM)
CCc1cc(C(=O)O)c(=O)[nH]c1-c1ccc(N2CCC(O)CC2)cc1 [Cpd 222, 5-ethyl-6-[4-(4-hydroxypiperidin-1-yl)phenyl]-2-oxo-1,2-dihydropyridine-3-carboxylic acid]		12.5 to 150 (≈ 36.5 to 438 µM)	12.5 to 150 (≈ 36.5 to 438 µM)	12.5 to 150 (≈ 36.5 to 438 µM)	1 to 3.5 (≈ 2.92 to 10.2 µM)
CCc1cc(C(=O)O)c(=O)[nH]c1-c1ccc(N2CCC(N(C)C)CC2)cc1 [Cpd 223, 6-{4-[4-(dimethylamino)piperidin-1-yl]phenyl}-5-ethyl-2-oxo-1,2-dihydropyridine-3-carboxylic acid]		12.5 to 150 (≈ 33.8 to 406 µM)	12.5 to 150 (≈ 33.8 to 406 µM)	12.5 to 150 (≈ 33.8 to 406 µM)	12.5 to 150 (≈ 33.8 to 406 µM)
CCc1cc(C(=O)O)c(=O)[nH]c1-c1ccc(N2CCC(OC)CC2)cc1 [Cpd 224, 5-ethyl-6-[4-(4-methoxypiperidin-1-yl)phenyl]-2-oxo-1,2-dihydropyridine-3-carboxylic acid]		12.5 to 150 (≈ 35.1 to 421 µM)	12.5 to 150 (≈ 35.1 to 421 µM)	12.5 to 150 (≈ 35.1 to 421 µM)	< 1
CCc1cc(C(=O)O)c(=O)[nH]c1-c1ccc(N2CCC(N)CC2)cc1 [Cpd 228, 6-[4-(4-aminopiperidin-1-yl)phenyl]-5-ethyl-2-oxo-1,2-dihydropyridine-3-carboxylic acid]		12.5 to 150 (≈ 36.6 to 439 µM)	12.5 to 150 (≈ 36.6 to 439 µM)	12.5 to 150 (≈ 36.6 to 439 µM)	12.5 to 150 (≈ 36.6 to 439 µM)
CCc1cc(C(=O)O)c(=O)[nH]c1-c1ccc(N2CCC(n3ccnn3)C2)cc1 (centres unmarked) [Cpd 230, 5-ethyl-2-oxo-6-{4-[3-(1H-1,2,3-triazol-1-yl)pyrrolidin-1-yl]phenyl}-1,2-dihydropyridine-3-carboxylic acid]		1 to 3.5 (≈ 2.64 to 9.22 µM)	3.5 to 12.5 (≈ 9.22 to 32.9 µM)	12.5 to 150 (≈ 32.9 to 395 µM)	< 1
CCc1cc(C(=O)O)c(=O)[nH]c1-c1ccc(N2CCC(C)(O)C2)cc1 (centres unmarked) [Cpd 233, 5-ethyl-6-[4-(3-hydroxy-3-methylpyrrolidin-1-yl)phenyl]-2-oxo-1,2-dihydropyridine-3-carboxylic acid]		3.5 to 12.5 (≈ 10.2 to 36.5 µM)	12.5 to 150 (≈ 36.5 to 438 µM)	12.5 to 150 (≈ 36.5 to 438 µM)	< 1
CCc1cc(C(=O)O)c(=O)[nH]c1-c1ccc(N2CCC(CNCc3ccccc3Cl)C2)cc1 (centres unmarked) [Cpd 234, 6-[4-(3-{[(2-chlorobenzyl)amino]methyl}pyrrolidin-1-yl)phenyl]-5-ethyl-2-oxo-1,2-dihydropyridine-3-carboxylic acid]		1 to 3.5 (≈ 2.15 to 7.51 µM)	12.5 to 150 (≈ 26.8 to 322 µM)	12.5 to 150 (≈ 26.8 to 322 µM)	< 1
CCc1cc(C(=O)O)c(=O)[nH]c1-c1ccc(N2CCC(C)(CN)C2)cc1 (centres unmarked) [Cpd 235, 6-{4-[3-(aminomethyl)-3-methylpyrrolidin-1-yl]phenyl}-5-ethyl-2-oxo-1,2-dihydropyridine-3-carboxylic acid]		12.5 to 150 (≈ 35.2 to 422 µM)	12.5 to 150 (≈ 35.2 to 422 µM)	12.5 to 150 (≈ 35.2 to 422 µM)	1 to 3.5 (≈ 2.81 to 9.85 µM)
CCc1cc(C(=O)O)c(=O)[nH]c1-c1ccc(N2CCC(CNCc3cccc(Cl)c3)C2)cc1 (centres unmarked) [Cpd 236, 6-[4-(3-{[(3-chlorobenzyl)amino]methyl}pyrrolidin-1-yl)phenyl]-5-ethyl-2-oxo-1,2-dihydropyridine-3-carboxylic acid]		1 to 3.5 (≈ 2.15 to 7.51 µM)	3.5 to 12.5 (≈ 7.51 to 26.8 µM)	12.5 to 150 (≈ 26.8 to 322 µM)	< 1
CCc1cc(C(=O)O)c(=O)[nH]c1-c1ccc(N2CCC(CNCc3ccc(Cl)cc3)C2)cc1 (centres unmarked) [Cpd 237, 6-[4-(3-{[(4-chlorobenzyl)amino]methyl}pyrrolidin-1-yl)phenyl]-5-ethyl-2-oxo-1,2-dihydropyridine-3-carboxylic acid]		< 1	3.5 to 12.5 (≈ 7.51 to 26.8 µM)	12.5 to 150 (≈ 26.8 to 322 µM)	< 1
CCc1cc(C(=O)O)c(=O)[nH]c1-c1ccc(N2CCC(CNCc3cccc(F)c3)C2)cc1 (centres unmarked) [Cpd 238, 5-ethyl-6-[4-(3-{[(3-fluorobenzyl)amino]methyl}pyrrolidin-1-yl)phenyl]-2-oxo-1,2-dihydropyridine-3-carboxylic acid]		1 to 3.5 (≈ 2.22 to 7.79 µM)	12.5 to 150 (≈ 27.8 to 334 µM)	12.5 to 150 (≈ 27.8 to 334 µM)	< 1
CCc1cc(C(=O)O)c(=O)[nH]c1-c1ccc(N2CCC(CNCc3ccc(F)cc3)C2)cc1 (centres unmarked) [Cpd 239, 5-ethyl-6-[4-(3-{[(4-fluorobenzyl)amino]methyl}pyrrolidin-1-yl)phenyl]-2-oxo-1,2-dihydropyridine-3-carboxylic acid]		< 1	12.5 to 150 (≈ 27.8 to 334 µM)	12.5 to 150 (≈ 27.8 to 334 µM)	< 1
CCc1cc(C(=O)O)c(=O)[nH]c1-c1ccc(N2CCC(CNCc3ccccc3F)C2)cc1 (centres unmarked) [Cpd 240, 5-ethyl-6-[4-(3-{[(2-fluorobenzyl)amino]methyl}pyrrolidin-1-yl)phenyl]-2-oxo-1,2-dihydropyridine-3-carboxylic acid]		1 to 3.5 (≈ 2.22 to 7.79 µM)	12.5 to 150 (≈ 27.8 to 334 µM)	12.5 to 150 (≈ 27.8 to 334 µM)	< 1
CCc1cc(C(=O)O)c(=O)[nH]c1-c1ccc(N2CCC(CNCc3cccnc3)C2)cc1 (centres unmarked) [Cpd 241, 5-ethyl-2-oxo-6-[4-(3-{[(pyridin-3-ylmethyl)amino]methyl}pyrrolidin-1-yl)phenyl]-1,2-dihydropyridine-3-carboxylic acid]		< 1	12.5 to 150 (≈ 28.9 to 347 µM)	12.5 to 150 (≈ 28.9 to 347 µM)	< 1
CCc1cc(C(=O)O)c(=O)[nH]c1-c1ccc(N2CCC(CNCc3ccncc3)C2)cc1 (centres unmarked) [Cpd 242, 5-ethyl-2-oxo-6-[4-(3-{[(pyridin-4-ylmethyl)amino]methyl}pyrrolidin-1-yl)phenyl]-1,2-dihydropyridine-3-carboxylic acid]		1 to 3.5 (≈ 2.31 to 8.09 µM)	12.5 to 150 (≈ 28.9 to 347 µM)	12.5 to 150 (≈ 28.9 to 347 µM)	< 1
CCc1cc(C(=O)O)c(=O)[nH]c1-c1ccc(N2CCC(CNCc3ccccn3)C2)cc1 (centres unmarked) [Cpd 243, 5-ethyl-2-oxo-6-[4-(3-{[(pyridin-2-ylmethyl)amino]methyl}pyrrolidin-1-yl)phenyl]-1,2-dihydropyridine-3-carboxylic acid]		1 to 3.5 (≈ 2.31 to 8.09 µM)	12.5 to 150 (≈ 28.9 to 347 µM)	12.5 to 150 (≈ 28.9 to 347 µM)	< 1
CCc1cc(C(=O)O)c(=O)[nH]c1-c1ccc(N2C[C@H]3CC[C@H](N=[N+]=[N-])[C@H]3C2)cc1.O=C(O)C(F)(F)F [Cpd 245, 6-{4-[(3aR,4S,6aS)-4-azidohexahydrocyclopenta[c]pyrrol-2(1H)-yl]phenyl}-5-ethyl-2-oxo-1,2-dihydropyridine-3-carboxylic acid trifluoroacetate]	< 1	3.5 to 12.5	3.5 to 12.5	12.5 to 150	
